Where a name gives a salt, the structure may show the parent alone.
Experiments:
Type in all cases: biochemical
human DPP-VIII = molecular target: T1, human DPP-VIII (Homo sapiens, UniProt Q6V1X1); assay: DPP-VIII inhibition assay (Ala-Pro AMC), selectivity vs DPP-IV; conditions: selectivity for DPP-IV relative to DPP-VIII
T1 construct: The full length cDNAs for human DPP-VII, DPP-VIII, DPP-IX, and FAP were obtained from Open Biosystems; 6xHis (C); made in house; host or cells: S9 (Sf9) insect cells, baculovirus (pFastBac, Bac-to-Bac)
T1 sequence (Q6V1X1 whole entry): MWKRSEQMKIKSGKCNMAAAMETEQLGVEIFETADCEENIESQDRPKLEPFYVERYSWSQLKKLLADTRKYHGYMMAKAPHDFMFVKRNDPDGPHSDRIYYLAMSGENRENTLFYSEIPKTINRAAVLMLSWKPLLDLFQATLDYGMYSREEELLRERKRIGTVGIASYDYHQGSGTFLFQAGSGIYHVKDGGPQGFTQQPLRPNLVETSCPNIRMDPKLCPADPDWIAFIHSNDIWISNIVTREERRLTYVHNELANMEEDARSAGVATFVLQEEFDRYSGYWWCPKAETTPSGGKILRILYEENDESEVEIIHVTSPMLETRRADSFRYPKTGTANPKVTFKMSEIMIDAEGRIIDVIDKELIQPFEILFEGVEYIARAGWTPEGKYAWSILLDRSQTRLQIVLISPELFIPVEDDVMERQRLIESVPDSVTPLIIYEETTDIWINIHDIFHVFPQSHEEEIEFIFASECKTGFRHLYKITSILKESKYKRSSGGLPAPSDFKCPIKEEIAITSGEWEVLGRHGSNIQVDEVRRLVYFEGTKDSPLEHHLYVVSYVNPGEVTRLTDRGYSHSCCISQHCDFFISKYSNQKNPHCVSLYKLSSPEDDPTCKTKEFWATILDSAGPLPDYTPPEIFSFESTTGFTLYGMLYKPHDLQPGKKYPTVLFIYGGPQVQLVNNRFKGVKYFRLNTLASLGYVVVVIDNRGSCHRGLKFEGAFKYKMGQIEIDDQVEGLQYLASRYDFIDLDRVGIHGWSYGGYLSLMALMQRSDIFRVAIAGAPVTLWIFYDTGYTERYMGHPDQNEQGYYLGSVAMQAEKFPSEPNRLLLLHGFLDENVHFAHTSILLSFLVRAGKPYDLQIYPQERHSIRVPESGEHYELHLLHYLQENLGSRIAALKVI
Procedure: (§1) Materials. S9 insect cells and Sf-900 II SFM media were from Invitrogen. Anti-FLAG M2 immunoaffinity gel was from Sigma. Gly-Pro-AMC, Lys-Pro AMC, and Ala-Pro AMC were from Enzyme Systems. IC50 calculations were performed by non-linear regression analysis using Prism software (GraphPad).
(§2) Preparation of DPP-VII DPP-VIII DPP-IX, and FAP baculovirus constructs. The full length cDNAs for human DPP-VII, DPP-VIII, DPP-IX, and FAP were obtained from Open Biosystems. The cDNAs were cloned into the pFastBac vector with the addition of an N-terminal FLAG tag on DPP-VII, C-terminal 6× His tags on DPP-VIII and DPP-IX, and an N-terminal 6× His tag on FAP (Sun 2002, Qi 2003, and Chen 2004). Baculovirus was prepared using the Bac-to-Bac Baculovirus Expression System (Invitrogen). The cDNAs in the final baculovirus constructs were sequence verified.
(§3) Baculovirus expression. S9 cells were grown to mid log phase at 27C with shaking at 125 RPM and then adjusted to 2×10E6/ml just prior to baculovirus infection. Infection with DPP-VII, DPP-VIII, DPP-IX, and FAP baculoviral constructs were all performed at an MOI of 4. The infected cells were grown for 48 hours and the cell pellets harvested and frozen until purification. DPP-VII was purified using anti-FLAG immunoaffinity gel according to the manufacturer's instructions. DPP-VIII, DPP-IX, and FAP were purified using a B-PER 6× His Fusion Protein Column Purification Kit from Pierce.
(§4) C50 assay. Recombinant DPPs were diluted in reaction buffer to give fluorescence values of 5000-20000 counts in the “enzyme only wells” 20 min after addition of substrate at 27° C. Reaction buffers were 25 mM (2-(4-Morpholino)-Ethane Sulfonic Acid), pH 5.5 for DPP-VII, 25 mM Tris, pH 8, 1% Triton X-100, 100 mM NaCl for DPP-VIII, and 25 mM Tris pH 8 for DPP-IX and FAP. Test wells in a 96-well microtiter plate contained 88 uL of diluted DPP and 2.5 ul of titrated compound in 50 mM glycine, pH 2.6. “Enzyme only” wells contained 88 uL of diluted DPP and 2.5 ul of glycine buffer. “No enzyme” wells contained 88 uL of reaction buffer without DPP and 2.5 ul of glycine buffer. All assays were done in triplicate. The plate was incubated at 27° C. for 10 min and then cooled on ice for 10 min. Ten microliters of substrate diluted in reaction buffer (40 uM final concentration) without Triton or NaCl were then added to all wells followed by incubation at 27C for 20 min. Substrates were Lys-Pro AMC for DPP-VII, and Ala-Pro AMC for DPP-VIII, DPP-IX, and FAP. Fluorescence in each well was measured at settings of 380/460 nm.
(§5) Compounds of the invention were tested for inhibition of DPP-IV according to Example 4 and DPP-VII, VIII, IX and FAP according to the present methods.

human DPP-IX = molecular target: T2, human DPP-IX (Homo sapiens, UniProt Q86TI2); assay: DPP-IX inhibition assay (Ala-Pro AMC), selectivity vs DPP-IV; conditions: selectivity for DPP-IV relative to DPP-IX
T2 construct: The full length cDNAs for human DPP-VII, DPP-VIII, DPP-IX, and FAP were obtained from Open Biosystems; 6xHis (C); made in house; host or cells: S9 (Sf9) insect cells, baculovirus (pFastBac, Bac-to-Bac)
T2 sequence (Q86TI2 whole entry): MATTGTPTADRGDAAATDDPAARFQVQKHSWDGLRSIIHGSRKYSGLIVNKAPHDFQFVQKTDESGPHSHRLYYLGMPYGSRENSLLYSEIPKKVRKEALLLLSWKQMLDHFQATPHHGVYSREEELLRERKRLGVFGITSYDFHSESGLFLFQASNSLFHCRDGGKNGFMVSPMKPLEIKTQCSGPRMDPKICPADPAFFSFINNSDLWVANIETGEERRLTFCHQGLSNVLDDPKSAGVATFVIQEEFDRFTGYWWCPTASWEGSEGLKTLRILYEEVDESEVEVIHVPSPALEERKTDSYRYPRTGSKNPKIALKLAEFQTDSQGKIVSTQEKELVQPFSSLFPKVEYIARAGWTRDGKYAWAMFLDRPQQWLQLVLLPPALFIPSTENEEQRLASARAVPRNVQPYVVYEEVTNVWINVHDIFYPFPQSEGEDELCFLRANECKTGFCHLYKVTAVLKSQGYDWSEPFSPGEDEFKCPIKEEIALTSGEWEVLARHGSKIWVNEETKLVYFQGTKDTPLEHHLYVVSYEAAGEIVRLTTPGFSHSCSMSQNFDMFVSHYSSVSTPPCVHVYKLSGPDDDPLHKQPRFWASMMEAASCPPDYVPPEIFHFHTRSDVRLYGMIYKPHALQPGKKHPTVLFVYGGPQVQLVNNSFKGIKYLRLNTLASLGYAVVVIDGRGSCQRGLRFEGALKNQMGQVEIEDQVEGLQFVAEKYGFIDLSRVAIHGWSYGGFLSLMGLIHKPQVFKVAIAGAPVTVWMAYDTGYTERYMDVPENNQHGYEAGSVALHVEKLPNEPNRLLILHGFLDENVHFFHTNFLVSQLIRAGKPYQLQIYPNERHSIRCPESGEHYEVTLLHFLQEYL
Procedure: as §1, §2, §3, §4, §5

human FAP = molecular target: T3, human FAP (Homo sapiens, UniProt Q12884); assay: FAP inhibition assay (Ala-Pro AMC), selectivity vs DPP-IV; conditions: selectivity for DPP-IV relative to FAP
T3 construct: The full length cDNAs for human DPP-VII, DPP-VIII, DPP-IX, and FAP were obtained from Open Biosystems; 6xHis (N); made in house; host or cells: S9 (Sf9) insect cells, baculovirus (pFastBac, Bac-to-Bac)
T3 sequence (Q12884 1-760): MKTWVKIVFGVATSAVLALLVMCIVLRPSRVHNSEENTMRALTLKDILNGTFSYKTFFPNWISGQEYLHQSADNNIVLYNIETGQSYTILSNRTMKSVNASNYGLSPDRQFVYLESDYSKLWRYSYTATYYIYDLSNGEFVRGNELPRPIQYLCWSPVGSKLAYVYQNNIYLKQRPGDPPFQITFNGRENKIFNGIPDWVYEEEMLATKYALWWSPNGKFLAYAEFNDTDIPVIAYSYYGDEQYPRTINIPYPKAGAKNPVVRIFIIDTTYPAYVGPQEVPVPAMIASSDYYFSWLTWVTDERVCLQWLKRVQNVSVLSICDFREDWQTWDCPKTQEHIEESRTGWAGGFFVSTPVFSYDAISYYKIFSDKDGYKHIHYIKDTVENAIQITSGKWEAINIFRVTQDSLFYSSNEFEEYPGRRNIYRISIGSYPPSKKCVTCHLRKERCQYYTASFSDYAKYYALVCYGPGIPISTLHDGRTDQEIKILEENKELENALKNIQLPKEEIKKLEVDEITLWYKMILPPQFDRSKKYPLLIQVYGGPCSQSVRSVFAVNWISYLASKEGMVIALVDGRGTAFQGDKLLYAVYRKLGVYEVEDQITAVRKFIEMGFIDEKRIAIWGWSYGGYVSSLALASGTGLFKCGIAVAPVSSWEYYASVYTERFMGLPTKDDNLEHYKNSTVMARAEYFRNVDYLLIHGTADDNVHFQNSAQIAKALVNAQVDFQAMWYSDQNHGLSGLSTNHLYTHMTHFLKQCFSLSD
Procedure: as §1, §2, §3, §4, §5

human DPP-VII = molecular target: T4, human DPP-VII (Homo sapiens, UniProt Q9UHL4); assay: DPP-VII inhibition assay (Lys-Pro AMC), selectivity vs DPP-IV; conditions: selectivity for DPP-IV relative to DPP-VII
T4 construct: The full length cDNAs for human DPP-VII, DPP-VIII, DPP-IX, and FAP were obtained from Open Biosystems; FLAG (N); made in house; host or cells: S9 (Sf9) insect cells, baculovirus (pFastBac, Bac-to-Bac)
Procedure: as §1, §2, §3, §4, §5

Structure (SMILES)	Selectivity Ratios DPP-VIII (human DPP-VIII)	Selectivity Ratios DPP-IX (human DPP-IX)	Selectivity Ratios FAP (human FAP)	Selectivity Ratios DPP-VII (human DPP-VII)
N#CC1CSC2CC(N)(Cc3ccccc3)C(=O)N12 (centres unmarked) [Compound 28, 6-Amino-6-benzyl-5-oxo-hexahydro-pyrrolo[2,1-b]thiazole-3-carbonitrile hydrochloride]	B (10 < B < 100)	B (10 < B < 100)	B (10 < B < 100)	B (10 < B < 100)
Cl.N#C[C@@H]1CS[C@H]2C[C@](N)(CC3CCCCC3)C(=O)N12 [Compound 29, 6-Amino-6-cyclohexylmethyl-5-oxo-hexahydro-pyrrolo[2,1-b]thiazole-3-carbonitrile hydrochloride]	A (A ≦ 10)	A (A ≦ 10)	C (C ≧ 100)	A (A ≦ 10)
Cl.N#C[C@@H]1CS[C@H]2C[C@](N)(c3ccc(F)cc3)C(=O)N12 [Compound 30, 6-Amino-6-(4-fluoro-phenyl)-5-oxo-hexahydro-pyrrolo[2,1-b]thiazole-3-carbonitrile hydrochloride]	B (10 < B < 100)	A (A ≦ 10)	B (10 < B < 100)	B (10 < B < 100)
Cl.N#C[C@@H]1CS[C@H]2C[C@](N)(CCc3ccccc3)C(=O)N12 [Compound 27, 6-Amino-5-oxo-6-phenethyl-hexahydro-pyrrolo[2,1-b]thiazole-3-carbonitrile hydrochloride]	A (A ≦ 10)	A (A ≦ 10)	B (10 < B < 100)	A (A ≦ 10)
Cl.N#C[C@@H]1CS[C@H]2C[C@](N)(C3CCCCC3)C(=O)N12 [Compound 24, 6-Amino-6-cyclohexyl-5-oxo-hexahydro-pyrrolo[2,1-b]thiazole-3-carbonitrile hydrochloride]	A (A ≦ 10)	A (A ≦ 10)	C (C ≧ 100)	B (10 < B < 100)
Cl.N#C[C@@H]1CS[C@H]2C[C@](N)(C3CCCC3)C(=O)N12 [Compound 23, 6-Amino-6-cyclopentyl-5-oxo-hexahydro-pyrrolo[2,1-b]thiazole-3-carbonitrile hydrochloride]	A (A ≦ 10)	A (A ≦ 10)	C (C ≧ 100)	B (10 < B < 100)
Cl.N#C[C@@H]1CS[C@H]2C[C@@H](N)C(=O)N12 [Compound 7, 6-Amino-5-oxo-hexahydro-pyrrolo[2,1-b]thiazole-3-carbonitrile]	B (10 < B < 100)	A (A ≦ 10)	C (C ≧ 100)	C (C ≧ 100)
Cl.N#C[C@@H]1CS[C@H]2C[C@@](N)(C3CCCC3)C(=O)N12 [Compound 33]	B (10 < B < 100)	A (A ≦ 10)	B (10 < B < 100)	B (10 < B < 100)
CC(C)C[C@@]1(N)C[C@@H]2SC[C@@H](C#N)N2C1=O.Cl [Compound 25, 6-Amino-6-isobutyl-5-oxo-hexahydro-pyrrolo[2,1-b]thiazole-3-carbonitrile hydrochloride]	B (10 < B < 100)	A (A ≦ 10)	C (C ≧ 100)	A (A ≦ 10)
CC(C)[C@@]1(N)C[C@@H]2SC[C@@H](C#N)N2C1=O.Cl [Compound 22, 6-Amino-6-isopropyl-5-oxo-hexahydro-pyrrolo[2,1-b]thiazole-3-carbonitrile hydrochloride]	B (10 < B < 100)	A (A ≦ 10)	C (C ≧ 100)	C (C ≧ 100)
Cl.N#C[C@@H]1CS[C@H]2C[C@](N)(c3ccccc3)C(=O)N12 [Compound 31, 6-Amino-5-oxo-6-phenyl-hexahydro-pyrrolo[2,1-b]thiazole-3-carbonitrile hydrochloride]	C (C ≧ 100)	B (10 < B < 100)	C (C ≧ 100)	C (C ≧ 100)
CC[C@H](C)[C@@]1(N)C[C@@H]2SC[C@@H](C#N)N2C1=O.Cl [Compound 26, 6-Amino-6-sec-butyl-5-oxo-hexahydro-pyrrolo[2,1-b]thiazole-3-carbonitrile hydrochloride]	B (10 < B < 100)	A (A ≦ 10)	C (C ≧ 100)	B (10 < B < 100)
CC[C@@]1(N)C[C@@H]2SC[C@@H](C#N)N2C1=O.Cl [Compound 21, 6-Amino-6-ethyl-5-oxo-hexahydro-pyrrolo[2,1-b]thiazole-3-carbonitrile hydrochloride]	B (10 < B < 100)	A (A ≦ 10)	C (C ≧ 100)	C (C ≧ 100)
Cl.N#C[C@@H]1CS[C@H]2C[C@@](N)(c3ccccc3)C(=O)N12 [Compound 34]	B (10 < B < 100)	A (A ≦ 10)	C (C ≧ 100)	C (C ≧ 100)

Reference: patent US7786163B2, “Constrained cyano compounds” (Forest Laboratories Holdings Limited (BM), priority 2004, dated 2010)
